Experimental data published in the NIST ThermoML archive (doi:10.1021/je300487n).
Numbers after ± are expanded uncertainties.

Columns and labels:
[1] = for viscosity / mass density: 101.33 kPa, Liquid; for viscosity: Concentric cylinders viscometry; for mass density: Vibrating tube method; for surface tension liquid-gas: Drop volume
[2] = refractive index (Na D-line) (dimensionless); settings: 101.33 kPa, Liquid, Standard Abbe refractometry

CC(=O)[O-].CCCC[N+]1(C)CCCC1 [1-butyl-1-methylpyrrolidinium acetate]
Settings | mass density, [1] [kg/m3] | refractive index, [2] | surface tension liquid-gas, [1] [mN/m] | viscosity, [1] [mPa·s]
283.15 K | – | 1.47263 ± 0.00076 | – | –
288.15 K | – | 1.47144 ± 0.00075 | – | –
293.15 K | – | 1.47075 ± 0.00074 | – | –
298.15 K | 1021.2 ± 2.5 | 1.46998 ± 0.00075 | – | 106.63
298.3 K | – | – | 37.4 ± 0.6 | –
303.15 K | 1018.1 ± 2.5 | 1.46868 ± 0.00077 | – | 79.92
307.9 K | – | – | 36.8 ± 0.6 | –
308.15 K | 1015.1 ± 2.5 | 1.46736 ± 0.00077 | – | 61.34
313.15 K | 1012.1 ± 2.5 | 1.46603 ± 0.00077 | – | 48.45
318 K | – | – | 36.4 ± 0.6 | –
318.15 K | 1009.2 ± 2.5 | 1.46461 ± 0.00077 | – | 38.34
323.15 K | 1006.2 ± 2.5 | 1.4632 ± 0.00077 | – | 31.1
328.15 K | 1003.3 ± 2.4 | 1.46178 ± 0.00077 | – | 25.61
328.4 K | – | – | 36.1 ± 0.6 | –
333.15 K | 1000.4 ± 2.4 | 1.46042 ± 0.00077 | – | 21.64
338.15 K | 997.8 ± 2.4 | 1.459 ± 0.00078 | – | 18.05
338.5 K | – | – | 35.6 ± 0.6 | –
343.15 K | 994.9 ± 2.4 | 1.45755 ± 0.00077 | – | 15.42
343.6 K | – | – | 34.4 ± 0.6 | –
348.15 K | 992 ± 2.4 | 1.45619 ± 0.00077 | – | 13.3
353.15 K | 989.2 ± 2.4 | 1.45479 ± 0.00077 | – | 11.84
358.15 K | 986.3 ± 2.4 | – | – | 10.16
363.15 K | 983.5 ± 2.4 | – | – | 8.983

CC(=O)[O-].CCn1cc[n+](C)c1 [1-ethyl-3-methylimidazolium acetate]
[2]
Settings | refractive index
283.15 K | 1.50402 ± 0.00077
288.15 K | 1.50267 ± 0.00077
293.15 K | 1.50129 ± 0.00077
298.15 K | 1.49992 ± 0.00077
303.15 K | 1.49854 ± 0.00077
308.15 K | 1.49718 ± 0.00077
313.15 K | 1.49581 ± 0.00077
318.15 K | 1.49447 ± 0.00077
323.15 K | 1.49307 ± 0.00077
328.15 K | 1.49171 ± 0.00077
333.15 K | 1.49035 ± 0.00077
338.15 K | 1.48899 ± 0.00077
343.15 K | 1.48756 ± 0.00078
348.15 K | 1.48613 ± 0.00077
353.15 K | 1.48476 ± 0.00077

CC(=O)[O-].CCn1cc[nH+]c1 [1-ethyl-1H-imidazolium acetate]
Settings | mass density, [1] [kg/m3] | refractive index, [2] | surface tension liquid-gas, [1] [mN/m] | viscosity, [1] [mPa·s]
283.15 K | 1047.2 ± 2.7 | 1.46347 ± 0.00081 | – | 7.88
288.15 K | 1042.9 ± 2.7 | 1.4616 ± 0.00082 | – | 6.669
293.15 K | 1038.5 ± 2.6 | 1.45966 ± 0.00082 | – | 5.291
298.1 K | – | – | 37.8 ± 0.6 | –
298.15 K | 1034.2 ± 2.6 | 1.45769 ± 0.00082 | – | 4.955
303.15 K | 1029.9 ± 2.6 | 1.45576 ± 0.00082 | – | 4.337
307.8 K | – | – | 36.7 ± 0.6 | –
308.15 K | 1025.6 ± 2.6 | 1.45379 ± 0.00082 | – | 3.828
313.15 K | 1021.3 ± 2.5 | 1.45185 ± 0.00082 | – | 3.225
318.15 K | 1017 ± 2.5 | 1.44985 ± 0.00082 | – | 3.051
318.5 K | – | – | 36.1 ± 0.6 | –
323.15 K | 1012.7 ± 2.5 | 1.44791 ± 0.00082 | – | 2.75
328.15 K | 1008.4 ± 2.5 | 1.44593 ± 0.00082 | – | 2.492
328.3 K | – | – | 35 ± 0.6 | –
333.15 K | 1004.1 ± 2.5 | 1.44395 ± 0.00082 | – | 2.171
338.15 K | 999.8 ± 2.4 | 1.44197 ± 0.00082 | – | 2.078
339.9 K | – | – | 33.7 ± 0.6 | –
343.15 K | 995.8 ± 2.4 | 1.44 ± 0.00082 | – | 1.91
344.2 K | – | – | 33.3 ± 0.5 | –
348.15 K | 991.5 ± 2.4 | 1.438 ± 0.00082 | – | 1.762
353.15 K | 987.2 ± 2.4 | 1.43607 ± 0.00082 | – | 1.547
358.15 K | 982.8 ± 2.4 | – | – | 1.515
363.15 K | 978.5 ± 2.3 | – | – | 1.412

CC(=O)O.CCN(C)C [N,N-dimethylethanamine acetate]
Settings | mass density, [1] [kg/m3] | refractive index, [2] | surface tension liquid-gas, [1] [mN/m] | viscosity, [1] [mPa·s]
283.15 K | 1028 ± 0.3 | 1.42303 ± 0.00055 | – | 26.22
288.15 K | 1024 ± 0.3 | 1.42143 ± 0.00055 | – | 20.89
293.15 K | 1020.1 ± 0.3 | 1.41983 ± 0.00055 | – | 16.36
298.15 K | 1016.1 ± 0.3 | 1.41819 ± 0.00055 | – | 13.97
298.2 K | – | – | 33.5 ± 0.3 | –
303.15 K | 1012.2 ± 0.3 | 1.41655 ± 0.00055 | – | 11.68
308.1 K | – | – | 32.7 ± 0.3 | –
308.15 K | 1008.3 ± 0.3 | 1.41492 ± 0.00055 | – | 9.888
313.15 K | 1004.4 ± 0.3 | 1.41328 ± 0.00056 | – | 8.275
318 K | – | – | 32.1 ± 0.3 | –
318.15 K | 1000.5 ± 0.3 | 1.41156 ± 0.00056 | – | 7.316
323.15 K | 996.8 ± 0.3 | 1.40991 ± 0.00056 | – | 6.381
328.15 K | 992.9 ± 0.3 | 1.4082 ± 0.00056 | – | 5.611
328.4 K | – | – | 31.3 ± 0.3 | –
333.15 K | 989 ± 0.3 | 1.40649 ± 0.00056 | – | 4.869
338.15 K | 985 ± 0.3 | 1.40476 ± 0.00056 | – | 4.427
338.2 K | – | – | 30.5 ± 0.3 | –
343.15 K | 981.1 ± 0.3 | 1.40312 ± 0.00056 | – | 3.97
348.15 K | 977.2 ± 0.3 | 1.40138 ± 0.00057 | – | 3.578
353.15 K | 973.1 ± 0.3 | 1.39963 ± 0.00057 | – | 3.132
358.15 K | 969.1 ± 0.3 | – | – | 2.943
363.15 K | 965.1 ± 0.3 | – | – | 2.691

CC(=O)[O-].CCCCn1cc[n+](C)c1 [1-butyl-3-methylimidazolium acetate]
Settings | mass density, [1] [kg/m3] | refractive index, [2] | surface tension liquid-gas, [1] [mN/m] | viscosity, [1] [mPa·s]
283.15 K | 1062.2 ± 0.4 | 1.49269 ± 0.0005 | – | 1037.2
288.15 K | 1058.9 ± 0.4 | 1.49158 ± 0.00051 | – | 658.84
293.15 K | 1055.5 ± 0.4 | 1.49021 ± 0.00052 | – | 429.11
298 K | – | – | 36.4 ± 0.3 | –
298.15 K | 1052.3 ± 0.4 | 1.4889 ± 0.00054 | – | 297.39
303.15 K | 1049.2 ± 0.4 | 1.48725 ± 0.00054 | – | 209.65
307.8 K | – | – | 35.9 ± 0.3 | –
308.15 K | 1046.1 ± 0.3 | 1.4858 ± 0.00053 | – | 152.07
313.15 K | 1043 ± 0.3 | 1.48438 ± 0.00053 | – | 112.23
318 K | – | – | 35.5 ± 0.3 | –
318.15 K | 1040 ± 0.3 | 1.48297 ± 0.00059 | – | 86.07
323.15 K | 1037 ± 0.3 | 1.4806 ± 0.00059 | – | 66.82
328.15 K | 1034 ± 0.3 | 1.47915 ± 0.00053 | – | 52.84
328.6 K | – | – | 35.1 ± 0.3 | –
333.15 K | 1031 ± 0.3 | 1.4777 ± 0.00053 | – | 42.67
338.15 K | 1028 ± 0.3 | 1.47624 ± 0.00054 | – | 34.66
339 K | – | – | 34.7 ± 0.3 | –
343.15 K | 1025 ± 0.3 | 1.47463 ± 0.00054 | – | 28.69
348.15 K | 1022.1 ± 0.3 | 1.47318 ± 0.00053 | – | 24.04
353.15 K | 1019.1 ± 0.3 | 1.4718 ± 0.00053 | – | 20.76
358.15 K | 1016.2 ± 0.3 | – | – | 17.45
363.15 K | 1013.3 ± 0.3 | – | – | 15.08
